Measured values from the supplement of paper PMC10307832.

Experiments:
Assay in all cases: relative viability (nuclei count vs DMSO), 5 days (fraction); higher = more cells survive
[1] = tested on: NCI-H2087
Procedure, shortened: (§1)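 One day after seeding in 1536-well plates, lung cancer cell lines were dosed by pin tool. Dosing was either single-drug or a fixed anchor-drug dose plus five library-drug doses (not always all listed) in √10 steps. After 5 days, nuclei were stained in one fix-and-stain step and counted on 4× images, and relative viability is the nuclei count of treated wells over that of vehicle wells, given as the median of duplicate plates.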

[2] = tested on: EMC-BAC-2
Procedure, shortened: as §1

[3] = tested on: NCI-H727
Procedure, shortened: as §1

[4] = tested on: NCI-H2009
Procedure, shortened: as §1

[5] = tested on: NCI-H596
Procedure, shortened: as §1

[6] = tested on: HARA
Procedure, shortened: as §1

[7] = tested on: NCI-H2126
Procedure, shortened: as §1

[8] = tested on: HCC-44
Procedure, shortened: as §1

[9] = tested on: NCI-H3122
Procedure, shortened: as §1

[10] = tested on: NCI-H2023
Procedure, shortened: as §1

[11] = tested on: LOU-NH91
Procedure, shortened: as §1

[12] = tested on: NCI-H1666
Procedure, shortened: as §1

[13] = tested on: LCLC-103H
Procedure, shortened: as §1

[14] = tested on: NCI-H441
Procedure, shortened: as §1

[15] = tested on: NCI-H838
Procedure, shortened: as §1

[16] = tested on: NCI-H2347
Procedure, shortened: as §1

[17] = tested on: NCI-H23
Procedure, shortened: as §1

[18] = tested on: NCI-H650
Procedure, shortened: as §1

[19] = tested on: BEN
Procedure, shortened: as §1

[20] = tested on: NCI-H647
Procedure, shortened: as §1

[21] = tested on: NCI-H1993
Procedure, shortened: as §1

[22] = tested on: 201T
Procedure, shortened: as §1

## Clc1ccc(Nc2nnc(Cc3ccncc3)c3ccccc23)cc1 [Vatalanib] + C[C@@H](Oc1cc(-c2cnn(C3CCNCC3)c2)cnc1N)c1c(Cl)ccc(F)c1Cl [Crizotinib] (partner 1 µM)
[1]; first compound 0.04 µM
  relative viability: 0.89
[1]; first compound 0.1265 µM
  relative viability: 1.07
[1]; first compound 0.4 µM
  relative viability: 0.828
[1]; first compound 1.265 µM
  relative viability: 0.826
[1]; first compound 4 µM
  relative viability: 0.89
[2]; first compound 0.04 µM
  relative viability: 0.703
[2]; first compound 0.1265 µM
  relative viability: 0.76
[2]; first compound 0.4 µM
  relative viability: 0.75
[2]; first compound 1.265 µM
  relative viability: 0.752
[2]; first compound 4 µM
  relative viability: 0.742
[3]; first compound 0.04 µM
  relative viability: 0.689
[3]; first compound 0.1265 µM
  relative viability: 0.603
[3]; first compound 0.4 µM
  relative viability: 0.992
[3]; first compound 1.265 µM
  relative viability: 0.693
[3]; first compound 4 µM
  relative viability: 0.654
[4]; first compound 0.04 µM
  relative viability: 0.987
[4]; first compound 0.1265 µM
  relative viability: 0.478
[4]; first compound 0.4 µM
  relative viability: 1.12
[4]; first compound 1.265 µM
  relative viability: 1
[4]; first compound 4 µM
  relative viability: 0.977
[5]; first compound 0.04 µM
  relative viability: 1.05
[5]; first compound 0.1265 µM
  relative viability: 1.02
[5]; first compound 0.4 µM
  relative viability: 0.884
[5]; first compound 1.265 µM
  relative viability: 0.955
[5]; first compound 4 µM
  relative viability: 1.16
[6]; first compound 0.04 µM
  relative viability: 0.99
[6]; first compound 0.1265 µM
  relative viability: 0.956
[6]; first compound 0.4 µM
  relative viability: 1.01
[6]; first compound 1.265 µM
  relative viability: 1.07
[6]; first compound 4 µM
  relative viability: 0.998
[7]; first compound 0.04 µM
  relative viability: 0.977
[7]; first compound 0.1265 µM
  relative viability: 1.03
[7]; first compound 0.4 µM
  relative viability: 1.05
[7]; first compound 1.265 µM
  relative viability: 1.07
[7]; first compound 4 µM
  relative viability: 0.992
[8]; first compound 0.04 µM
  relative viability: 0.836
[8]; first compound 0.1265 µM
  relative viability: 0.842
[8]; first compound 0.4 µM
  relative viability: 0.804
[8]; first compound 1.265 µM
  relative viability: 0.735
[8]; first compound 4 µM
  relative viability: 0.701
[9]; first compound 0.04 µM
  relative viability: 0.25
[9]; first compound 0.1265 µM
  relative viability: 0.274
[9]; first compound 0.4 µM
  relative viability: 0.269
[9]; first compound 1.265 µM
  relative viability: 0.249
[9]; first compound 4 µM
  relative viability: 0.288
[10]; first compound 0.04 µM
  relative viability: 0.571
[10]; first compound 0.1265 µM
  relative viability: 0.667
[10]; first compound 0.4 µM
  relative viability: 0.698
[10]; first compound 1.265 µM
  relative viability: 0.605
[10]; first compound 4 µM
  relative viability: 0.559
[11]; first compound 0.04 µM
  relative viability: 0.728
[11]; first compound 0.1265 µM
  relative viability: 0.708
[11]; first compound 0.4 µM
  relative viability: 0.674
[11]; first compound 1.265 µM
  relative viability: 0.718
[11]; first compound 4 µM
  relative viability: 0.726
[12]; first compound 0.04 µM
  relative viability: 0.968
[12]; first compound 0.1265 µM
  relative viability: 0.985
[12]; first compound 0.4 µM
  relative viability: 1.06
[12]; first compound 1.265 µM
  relative viability: 0.889
[12]; first compound 4 µM
  relative viability: 0.742
[13]; first compound 0.04 µM
  relative viability: 1.04
[13]; first compound 0.1265 µM
  relative viability: 1.04
[13]; first compound 0.4 µM
  relative viability: 1.15
[13]; first compound 1.265 µM
  relative viability: 0.999
[13]; first compound 4 µM
  relative viability: 1.11
[14]; first compound 0.04 µM
  relative viability: 0.851
[14]; first compound 0.1265 µM
  relative viability: 0.605
[14]; first compound 0.4 µM
  relative viability: 0.72
[14]; first compound 1.265 µM
  relative viability: 0.835
[14]; first compound 4 µM
  relative viability: 0.831
[15]; first compound 0.04 µM
  relative viability: 0.837
[15]; first compound 0.1265 µM
  relative viability: 0.867
[15]; first compound 0.4 µM
  relative viability: 1.01
[15]; first compound 1.265 µM
  relative viability: 0.73
[15]; first compound 4 µM
  relative viability: 0.79
[16]; first compound 0.04 µM
  relative viability: 0.642
[16]; first compound 0.1265 µM
  relative viability: 0.69
[16]; first compound 0.4 µM
  relative viability: 0.654
[16]; first compound 1.265 µM
  relative viability: 0.817
[16]; first compound 4 µM
  relative viability: 0.732
[17]; first compound 0.04 µM
  relative viability: 0.505
[17]; first compound 0.1265 µM
  relative viability: 0.49
[17]; first compound 0.4 µM
  relative viability: 0.491
[17]; first compound 1.265 µM
  relative viability: 0.622
[17]; first compound 4 µM
  relative viability: 0.564
[18]; first compound 0.04 µM
  relative viability: 0.726
[18]; first compound 0.1265 µM
  relative viability: 0.627
[18]; first compound 1.265 µM
  relative viability: 0.641
[18]; first compound 4 µM
  relative viability: 0.606
[19]; first compound 0.04 µM
  relative viability: 1.03
[19]; first compound 0.1265 µM
  relative viability: 0.764
[19]; first compound 0.4 µM
  relative viability: 1.01
[19]; first compound 1.265 µM
  relative viability: 0.858
[19]; first compound 4 µM
  relative viability: 1.01
[20]; first compound 0.04 µM
  relative viability: 0.92
[20]; first compound 0.1265 µM
  relative viability: 1.07
[20]; first compound 0.4 µM
  relative viability: 1.31
[20]; first compound 1.265 µM
  relative viability: 0.977
[20]; first compound 4 µM
  relative viability: 0.918
[21]; first compound 0.04 µM
  relative viability: 0.948
[21]; first compound 0.1265 µM
  relative viability: 0.853
[21]; first compound 0.4 µM
  relative viability: 0.935
[21]; first compound 1.265 µM
  relative viability: 0.805
[21]; first compound 4 µM
  relative viability: 0.846
[22]; first compound 0.04 µM
  relative viability: 1
[22]; first compound 0.1265 µM
  relative viability: 1.07
[22]; first compound 0.4 µM
  relative viability: 1.03
[22]; first compound 1.265 µM
  relative viability: 0.991
[22]; first compound 4 µM
  relative viability: 1.07
